Reference: US9873705B2, “Vinylogous thioester compounds and methods of use” (THE TRUSTEES OF DARTMOUTH COLLEGE, priority 2015, dated 2018)
Entries after “also recorded” stand apart in the source; their conditions may differ.

Tests used:
[1] = test system: ROS in U87-MG cells; assay: ROS detection by DCF-DA immunofluorescence; type: cell-based, human; details: Y102 2.2 or 4.5 μM 24 h, S1 20 μM 1 h, vs DMSO
Experimental: Damaged mitochondria generate and accumulate reactive oxygen species (ROS), which are damaging to the cell. RAS dysregulated tumors are reported to depend on autophagy in order to remove the damaged mitochondria and allow for their survival (22). […] The ROS detection reagent DCF-DA, which is converted to its fluorescent form DCF upon ROS-mediated oxidation, was used to examine if ROS levels increase with Y102 treatment.
The data for FIG. 5 was obtained as follows: U87-MG cells were plated on poly-D-lysine (Neuvitro Corporation) coated coverslips at a concentration of 50,000 cells/well in a 24-well plate and allowed to adhere overnight. Cells were treated for 24 h with DMSO, 2.2 μM Y102, or 4.5 μM Y102, or for 1 h with 20 μM S1. 30 minutes prior to treatment end, cells were stained with 20 μM 2′, 7′-dichlorofluorescin diacetate (DCFDA, Sigma, green) at 37° C. Following staining, cells were fixed for 10 minutes with 3.7% formaldehyde. After an additional two washes with PBST, cell nuclei were stained with 0.33 μg/mL DAPI (Molecular Probes) for 30 minutes (blue). Coverslips were mounted on glass slides with ProLong Gold antifade medium. Wide-field images were taken with a Zeiss Imager Z1 wide-field microscope using a 40×1.3 NA EC Plan-NEOFLUAR objective and Zeiss Axiovision software. Scale bar, 20 μm.

[2] = test system: ira2Δ yeast (NF1 deficient yeast); assay: Yeast growth inhibition (dose response) assay, OD600; type: cell-based, Saccharomyces cerevisiae; details: isogenic yeast system; 0 to 100 μM, 18 h
From the text: A high-throughput screen was used to identify compounds that are synthetically lethal with NF1 loss (14). A synthetic lethal interaction occurs when loss of two genes due to genetic deletion or pharmacologic inhibition is nonlethal independently but is lethal in combination (FIG. 1) (17). The first gene lost is NF1, and the loss of the second gene is mimicked through treatment with the screened compounds. The screen used Saccharomyces cerevisiae lacking IRA2 (ira2Δ), a yeast homologue of NF1, as a model for NF1 loss. ira2Δ yeast have increased RAS-GTP, which in turn activates MAPK and PKA pathways that mimic the pathways that are increased in NF1 deficient Schwann cells (18). […]
Candidate compounds were screened in ira2Δ yeast cells to identify target compounds synthetically lethal to NF1 loss. Growth inhibition of yeast was measured using the optical density of yeast cultures treated with compounds compared to DMSO control (14).
Growth inhibition assays as described above were performed on ira2Δ yeast cells and NF1-deficient glioblastoma cells. […] Following 18 h treatment, OD600 was measured using a THERMOmax (Molecular Devices) microplate reader and SOFTmax Pro 4.3 LS software. […] AlamarBlue fluorescence was determined with a Spectramax M2 (Molecular Devices) plate reader at an excitation of 544 nm and an emission of 590 nm using SoftMax Pro 3 software. […]

[3] = test system: mitochondrial marker Tom20 in U87-MG cells; assay: Tom20 flow cytometry (mitochondrial fluorescence); type: cell-based, human; details: 20 h, 2 or 2.75 μM
Experimental: The data for FIG. 8 was obtained as follows: U87-MG cells were plated at a concentration of 500,000 cells/well in a 6-well plate and allowed to adhere overnight. Cells were treated for 4 h with DMSO, followed by a 20 h cotreatment with DMSO, 2 μM Y102, 2.75 μM Y102, or 50 μM HCQ. Following treatment, cells were harvested using 0.25% trypsin, rinsed with PBS, and fixed for 20 minutes at 4° C. using BD Cytofix/Cytoperm fixation and permabilization solution (BD Biosciences). Following 2 washes with BD Perm/Wash buffer (BD Biosciences), cells were stained for 30 minutes at 4° C. in the dark for the mitochondrial marker Tom20 using anti-Tom20 FL-145 (Santa Cruz, 1:200). Following an additional 2 washes with BD Perm/Wash buffer, cells were stained with goat anti-rabbit 488 (Jackson ImmunoResearch Laboratories) secondary antibody for 30 minutes at 4° C. in the dark. Cells were washed twice with BD Perm/Wash buffer, resuspended in 0.5 mL PBS, and filtered prior to analysis. The cells were transferred to flow cytometry tubes and analyzed using a MacsQuant VYB 8-color flow cytometer. Tom20 fluorescence was detected using the B1-A (FITC) channel. 35,000 events/sample were collected and cellular debris was gated out of the dataset. Histograms were generated using the FlowLogic flow cytometry analysis software package.

[4] = test system: U87-MG cells; assay: U87-MG viability with NAC pretreatment, alamarBlue; type: cell-based, human; details: 2 hour pretreatment with 5 mM NAC, then 72 hours Y102
Experimental: The data for FIG. 6 was obtained as follows: U87-MG cells were plated at a concentration of 5,000 cells/well into 96-well plates and allowed to adhere overnight. The following day, cells were pretreated with 5 mM N-acetyl cysteine (NAC) or the equivalent volume of DMSO 2 h prior to treatment with Y102 at concentrations ranging from 0 to 20 μM for 72 h. Three hours prior to collection, alamarBlue (Thermo Scientific) was added to a final concentration of 5% v/v. AlamarBlue fluorescence was determined with a Spectramax M2 (Molecular Devices) plate reader at an excitation of 544 nm and an emission of 590 nm using SoftMax Pro 3 software. Results were plotted as a percentage compared to DMSO control using GraphPad Prism software (FIG. 6).

## Cn1cnnc1S/C=C/C(=O)c1ccc(F)cc1 [Y102]
[1]
  ROS accumulation (DCF-DA): ROS were found to accumulate; also recorded: accumulation of ROS
[2]
  sensitivity of NF1 deficient yeast (growth): selectively sensitive
[3]
  mitochondrial fluorescence / accumulation (Tom20): increase in mitochondrial fluorescence; also recorded: accumulation of the mitochondria
[4]
  sensitivity to Y102 after NAC pretreatment: reversed sensitivity to Y102; also recorded: rescued
